From patent US7119095B2, “Pharmaceutically active compounds and methods of use thereof” (Dana Farber Cancer Institute, priority 2001, dated 2006)

Assays:
[1] = molecular target: T1, T. gondii DHFR (Toxoplasma gondii, UniProt Q07422); type: biochemical; settings: compounds 3a-k
T1 sequence (Q07422 1-610): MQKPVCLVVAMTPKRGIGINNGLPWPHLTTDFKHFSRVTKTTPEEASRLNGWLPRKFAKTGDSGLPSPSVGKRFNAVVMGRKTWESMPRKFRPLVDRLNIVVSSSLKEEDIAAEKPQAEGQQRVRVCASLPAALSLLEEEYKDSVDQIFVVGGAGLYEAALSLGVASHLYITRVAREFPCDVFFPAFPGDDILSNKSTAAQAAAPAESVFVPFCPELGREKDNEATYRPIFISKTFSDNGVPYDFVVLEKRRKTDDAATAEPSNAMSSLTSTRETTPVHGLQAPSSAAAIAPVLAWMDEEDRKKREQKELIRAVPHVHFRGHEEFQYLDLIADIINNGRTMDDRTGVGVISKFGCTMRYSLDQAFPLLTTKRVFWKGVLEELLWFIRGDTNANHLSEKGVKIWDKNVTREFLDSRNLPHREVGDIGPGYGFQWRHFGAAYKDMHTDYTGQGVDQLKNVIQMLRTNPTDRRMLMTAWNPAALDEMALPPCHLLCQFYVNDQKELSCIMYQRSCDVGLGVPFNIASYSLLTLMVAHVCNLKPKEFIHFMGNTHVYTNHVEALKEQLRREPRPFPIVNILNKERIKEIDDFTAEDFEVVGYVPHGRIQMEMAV

[2] = molecular target: T2, rat liver DHFR (Rattus norvegicus, UniProt Q920D2); assay: Inhibition of rat liver DHFR (literature assay); settings: read-out: IC50 (μM) Rat liver, compounds 3a-k
T2 sequence (Q920D2 1-187): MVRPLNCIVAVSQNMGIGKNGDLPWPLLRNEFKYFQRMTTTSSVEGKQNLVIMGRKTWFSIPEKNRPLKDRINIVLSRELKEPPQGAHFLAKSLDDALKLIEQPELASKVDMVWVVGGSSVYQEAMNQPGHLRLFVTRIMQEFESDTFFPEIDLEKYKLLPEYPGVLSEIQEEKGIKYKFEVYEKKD

[3] = molecular target: T3, M. avium DHFR (Mycobacterium avium, UniProt O30463); assay: Inhibition of M. avium DHFR (literature assay); type: biochemical; settings: compounds 3a-k
T3 sequence (O30463 1-181): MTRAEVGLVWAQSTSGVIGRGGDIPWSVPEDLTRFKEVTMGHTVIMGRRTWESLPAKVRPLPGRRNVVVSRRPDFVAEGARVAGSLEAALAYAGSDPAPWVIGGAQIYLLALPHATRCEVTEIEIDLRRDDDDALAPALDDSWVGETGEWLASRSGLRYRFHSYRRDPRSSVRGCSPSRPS

[4] = molecular target: E. coli DHFR (Escherichia coli, UniProt P0ABQ4); settings: Kuyper et al., J. Med. Chem. 1985; cited from earlier work
[5] = molecular target: T1, T. gondii DHFR; settings: reported in the literature; cited from earlier work

CCCCCOc1ccc(OC)c(Cc2cnc(N)nc2N)c1 [Compound 3a, 2,4-Diamino-5-(2-methoxy-5-pentyloxybenzyl)pyrimidine]
IC50 [1]: 6.5 µM | IC50 [2]: 44 µM | IC50 [3]: 0.31 µM

CCCCCCOc1ccc(OC)c(Cc2cnc(N)nc2N)c1 [Compound 3b, 2,4-Diamino-5-(2-methoxy-5-hexyloxybenzyl)pyrimidine]
IC50 [1]: 9.2 µM | IC50 [2]: 29 µM | IC50 [3]: 0.39 µM

COc1ccc(OCCCCCCCCC(=O)O)cc1Cc1cnc(N)nc1N [Compound 3k]
IC50 [1]: 0.43 µM | IC50 [2]: 12 µM

COc1ccc(OCCCCCC(=O)O)cc1Cc1cnc(N)nc1N [Compound 3h]
IC50 [1]: 0.48 µM | IC50 [2]: 17 µM | IC50 [3]: 0.15 µM

COc1ccc(OCCCCCCCC(=O)O)cc1Cc1cnc(N)nc1N [Compound 3j]
IC50 [1]: 0.36 µM | IC50 [2]: 12 µM | IC50 [3]: 0.13 µM

CCCCCCCCCOc1ccc(OC)c(Cc2cnc(N)nc2N)c1 [Compound 3e, 2,4-Diamino-5-(2-methoxy-5-nonyloxybenzyl)pyrimidine]
IC50 [1]: 32 µM | IC50 [2]: 86 µM | IC50 [3]: 32 µM

COc1ccc(OCCCC(=O)O)cc1Cc1cnc(N)nc1N [Compound 3f]
IC50 [1]: 0.18 µM | IC50 [2]: 2.6 µM | IC50 [3]: 0.0048 µM

CCCCCCCOc1ccc(OC)c(Cc2cnc(N)nc2N)c1 [Compound 3c, 2,4-Diamino-5-(2-methoxy-5-heptyloxybenzyl)pyrimidine]
IC50 [1]: 5 µM | IC50 [2]: 11 µM | IC50 [3]: 0.89 µM

COc1cc(Cc2cnc(N)nc2N)cc(OCCCCCC(=O)O)c1OC [Compound 18]
Ki E. coli DHFR [4]: highest affinity

COc1ccc(OCCCCCCC(=O)O)cc1Cc1cnc(N)nc1N [Compound 3i]
IC50 [2]: 12 µM | IC50 [3]: 0.19 µM

CCOc1cc(Cc2cnc(N)nc2N)cc(OCC)c1-n1cccc1 [Compound 19, epiroprim]
selectivity T. gondii versus rat liver DHFR [5]: 155

CCCCCCCCOc1ccc(OC)c(Cc2cnc(N)nc2N)c1 [Compound 3d, 2,4-Diamino-5-(2-methoxy-5-octyloxybenzyl)pyrimidine]
IC50 [1]: 15 µM | IC50 [2]: 30 µM
